Experimental data reported in patent publication US4759880A, “Alkanoarachidonic acids” (Research Corporation, priority 1984, dated 1988).

Experiments:
5-lipoxygenase = target: T1, 5-lipoxygenase (Rattus norvegicus, UniProt P12527); experiment: Inhibition of conversion of 14C-AA to 14C-5-HETE in supernatant from RBL-1 cells; assay type: biochemical
T1 construct: super natant from RBL-1 cells; endogenous in cells; host or cells: RBL-1 cells (supernatant)
T1 sequence (P12527 1-673): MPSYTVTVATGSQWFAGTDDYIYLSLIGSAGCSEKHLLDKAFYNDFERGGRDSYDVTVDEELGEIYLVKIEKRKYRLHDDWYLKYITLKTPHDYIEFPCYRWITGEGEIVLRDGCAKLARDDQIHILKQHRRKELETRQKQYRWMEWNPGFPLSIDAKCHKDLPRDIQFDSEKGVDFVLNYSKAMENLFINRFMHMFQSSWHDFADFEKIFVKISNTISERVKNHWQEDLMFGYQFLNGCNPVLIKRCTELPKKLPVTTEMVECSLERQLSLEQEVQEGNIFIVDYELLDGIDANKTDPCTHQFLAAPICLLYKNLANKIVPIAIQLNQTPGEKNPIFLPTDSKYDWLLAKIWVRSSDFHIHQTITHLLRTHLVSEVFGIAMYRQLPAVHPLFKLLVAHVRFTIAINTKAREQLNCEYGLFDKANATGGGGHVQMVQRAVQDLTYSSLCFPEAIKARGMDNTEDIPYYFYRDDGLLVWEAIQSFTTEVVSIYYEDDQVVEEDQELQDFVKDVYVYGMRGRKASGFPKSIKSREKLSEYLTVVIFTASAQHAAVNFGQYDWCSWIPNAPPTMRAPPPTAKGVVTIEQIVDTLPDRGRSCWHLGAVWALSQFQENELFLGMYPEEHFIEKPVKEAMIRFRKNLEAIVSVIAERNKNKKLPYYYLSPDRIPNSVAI
Excerpt: (§1) Biological studies to define the profiles of these compounds reveal interesting and selective properties including, in vitro inhibition of SRS-A biosynthesis, 5-lipoxygenase inhibition, phospholiphase A2 inhibition and antithrombotic activity.

[1] = system: human gel-filtered platelet suspension; experiment: Inhibition of AA-induced platelet aggregation; assay type: cell-based; settings: human gel-filtered platelet suspension containing 0.2% albumin
Excerpt: as §1

## CCCCC/C=C\C/C=C\C/C=C\C1(/C=C\CCCC(=O)O)CC1 [compound 1]
5-lipoxygenase
  inhibition at 100 µM: 86%
[1]
  inhibition at 80 µM: 50%
